Values after ≈ are worked out from the molar mass of the structure shown. Like-named read-outs stand apart in the source and are kept apart here.
Experiments:
P388 = assay: Antitumor effect by MTT assay, P388 tumor cells; assay type: cell-based; conditions: Mus musculus, read-out: GI50 Value
Protocol: (§1) Each of three tumor cells, P388, PC-6 and PC-12, were inoculated in a 96-well microplate in amounts of 5.0×10^2 cells/150 μl/well of P388, 5.0×10^3 cells/150 μl/well of PC-6, and 1.0×10^3 cells/150 μl/well of PC-12, and after 2 hours in the case of P388 or after 24 hours in the cases of PC-6 and PC-12, test compound was added to the well in an amount of 50 μl/well in each case. Cells were cultivated for 3 days. Then, a 5 mg/ml solution of MTT [3-(4,5-dimethylthiazol-2-yl)-2,5-diphenyl-2H-tetrazolium bromide] was added to the well in an amount of 20 μl/well. After 4 hours, the culture liquid was removed, dimethylsulfoxide was added to the well in an amount of 150 μl/well, and the absorbance at 540 nm was measured. The antitumor effect was determined in terms of a concentration of the test compound required for suppressing the cell growth in the medicated group to 50% of the cell growth in the control group, i.e., a GI50 value (ng/ml).

PC-6 = assay: Antitumor effect by MTT assay, PC-6 tumor cells; assay type: cell-based; conditions: Homo sapiens, read-out: GI50 Value
Protocol: as §1

PC-12 = assay: Antitumor effect by MTT assay, PC-12 tumor cells; assay type: cell-based; conditions: Rattus norvegicus, read-out: GI50 Value
Protocol: as §1

microtubules = conditions: background art; cited from earlier work
[1] = tested on: cancers of digestive tracts, in particular, the cancer of large intestine; conditions: background art; cited from earlier work
tumor = conditions: background art; cited from earlier work

Structure (SMILES)	GI50 (P388; P388, 72 h) [ng/mL]	GI50 (PC-6; PC-6, 72 h) [ng/mL]	GI50 (PC-12; PC-12, 72 h) [ng/mL]	GI50 (P388; 72 h, P388, 3 days, MTT) [ng/mL]	GI50 (PC-6; 72 h, PC-6, 3 days, MTT) [ng/mL]	GI50 (PC-12; 72 h, PC-12, 3 days, MTT) [ng/mL]	inhibitory activity on the disassembly of microtubules in cytokinesis (microtubules)	effectiveness on cancers of digestive tracts [1]	antitumor activity compared with taxol (tumor)
CCC(=O)O[C@@]12CO[C@@H]1C[C@H](O)[C@@]1(C)C(=O)C(CCN3CCOCC3)C3=C(C)[C@@H](OC(=O)C(O)C(C=C(C)C)NC(=O)OC(C)(C)C)C[C@@](O)([C@@H](OC(=O)c4ccccc4)[C@H]21)C3(C)C (single isomer, unassigned) [Example 33 Isomer B, 13-O-[3-(tert-Butoxycarbonylamino)-2-hydroxy-5-methyl-4-hexenoyl]-10-deacetoxy-4-deacetyl-10-(2-morpholinoethyl)-4-O-propionylbaccatin III]	0.69 (≈ 0.769 nM)	4.13 (≈ 4.6 nM)	4.16 (≈ 4.64 nM)	–	–	–	–	–	–
COC(=O)CCC1C(=O)[C@@]2(C)[C@H]([C@H](OC(=O)c3ccccc3)[C@]3(O)C[C@H](OC(=O)[C@H](O)[C@@H](NC(=O)OC(C)(C)C)c4ccccc4)C(C)=C1C3(C)C)[C@]1(OC(C)=O)CO[C@@H]1C[C@@H]2O (stereo partly drawn) [Example 7, 13-O-[(2R,3S)-3-(tert-Butoxycarbonylamino)-2-hydroxy-3-phenylpropionyl]-10-deacetoxy-10-(2-methoxycarbonylethyl)baccatin III]	3.3 (≈ 3.76 nM)	0.771 (≈ 0.878 nM)	24.4 (≈ 27.8 nM)	–	–	–	–	–	–
C=CCC1C(=O)[C@@]2(C)[C@H]([C@H](OC(=O)c3ccccc3)[C@]3(O)C[C@H](OC(=O)[C@H](O)[C@@H](NC(=O)OC(C)(C)C)c4ccccc4)C(C)=C1C3(C)C)[C@]1(OC(C)=O)CO[C@@H]1C[C@@H]2O (stereo partly drawn) [Example 16, 10-Allyl-13-O-[(2R,3S)-3-(tert-butoxycarbonylamino)-2-hydroxy-3-phenylpropionyl]-10-deacetoxybaccatin III]	1.16 (≈ 1.39 nM)	0.677 (≈ 0.814 nM)	7.87 (≈ 9.46 nM)	–	–	–	–	–	–
CC(=O)O[C@@]12CO[C@@H]1C[C@H](O)[C@@]1(C)C(=O)C(CC=O)C3=C(C)[C@@H](OC(=O)[C@H](O)[C@@H](NC(=O)OC(C)(C)C)c4ccccc4)C[C@@](O)([C@@H](OC(=O)c4ccccc4)[C@H]21)C3(C)C (stereo partly drawn) [Example 18, 13-O-[(2R,3S)-3-(tert-Butoxycarbonylamino)-2-hydroxy-3-phenylpropionyl]-10-deacetoxy-10-(formylmethyl)baccatin III]	1.19 (≈ 1.43 nM)	0.983 (≈ 1.18 nM)	12.9 (≈ 15.5 nM)	–	–	–	–	–	–
CC(=O)O[C@@]12CO[C@@H]1C[C@H](O)[C@@]1(C)C(=O)C(CCN3CCOCC3)C3=C(C)[C@@H](OC(=O)[C@H](O)[C@@H](NC(=O)OC(C)(C)C)c4ccccc4)C[C@@](O)([C@@H](OC(=O)c4ccccc4)[C@H]21)C3(C)C (stereo partly drawn) [Example 20, 13-O-[(2R,3S)-3-(tert-Butoxycarbonylamino)-2-hydroxy-3-phenylpropionyl]-10-deacetoxy-10-(2-morpholinoethyl)baccatin III]	–	–	–	3.07 (≈ 3.39 nM)	0.603 (≈ 0.666 nM)	13.5 (≈ 14.9 nM)	–	–	–
CCCC(=O)O[C@@]12CO[C@@H]1C[C@H](O)[C@@]1(C)C(=O)C(CCN3CCOCC3)C3=C(C)[C@@H](OC(=O)[C@H](O)[C@@H](NC(=O)OC(C)(C)C)c4ccccc4)C[C@@](O)([C@@H](OC(=O)c4ccccc4)[C@H]21)C3(C)C (stereo partly drawn) [Example 24, 4-O-Butanoyl-13-O-[(2R,3S)-3-(tert-butoxycarbonylamino)-2-hydroxy-3-phenylpropionyl]-10-deacetoxy-4-deacetyl-10-(2-morpholinoethyl)baccatin III]	0.845 (≈ 0.906 nM)	1.67 (≈ 1.79 nM)	4.99 (≈ 5.35 nM)	–	–	–	–	–	–
C=CCC1C(=O)[C@@]2(C)[C@H]([C@H](OC(=O)c3ccccc3)[C@]3(O)C[C@H](OC(=O)[C@H](O)[C@@H](NC(=O)OC(C)(C)C)c4ccco4)C(C)=C1C3(C)C)[C@]1(OC(=O)CCC)CO[C@@H]1C[C@@H]2O (stereo partly drawn) [Example 25, 10-Allyl-4-O-Butanoyl-13-O-[3-(tert-butoxycarbonylamino)-3-(2-furyl)-2-hydroxypropionyl]-10-deacetoxy-4-deacetylbaccatin III]	–	–	–	0.226 (≈ 0.266 nM)	0.771 (≈ 0.907 nM)	1.34 (≈ 1.58 nM)	–	–	–
CCC(=O)O[C@@]12CO[C@@H]1C[C@H](O)[C@@]1(C)C(=O)C(CCN3CCOCC3)C3=C(C)[C@@H](OC(=O)[C@H](O)[C@@H](NC(=O)OC(C)(C)C)c4ccccc4)C[C@@](O)([C@@H](OC(=O)c4ccccc4)[C@H]21)C3(C)C (stereo partly drawn) [Example 26, 13-O-[(2R,3S)-3-(tert-butoxycarbonylamino)-2-hydroxy-3-phenylpropionyl]-10-deacetoxy-4-deacetyl-10-(2-morpholinoethyl)-4-O-propionylbaccatin III]	1.07 (≈ 1.16 nM)	1.22 (≈ 1.33 nM)	5.64 (≈ 6.14 nM)	–	–	–	–	–	–
CCC(=O)O[C@@]12CO[C@@H]1C[C@H](O)[C@@]1(C)C(=O)C(CCN3CCOCC3)C3=C(C)[C@@H](OC(=O)[C@H](O)[C@@H](NC(=O)OC(C)(C)C)c4ccco4)C[C@@](O)([C@@H](OC(=O)c4ccccc4)[C@H]21)C3(C)C (stereo partly drawn) [Example 31, 13-O-[(2R,3S)-3-(tert-Butoxycarbonylamino)-3-(2-furyl)-2-hydroxypropionyl]-10-deacetoxy-4-deacetyl-10-(2-morpholinoethyl)-4-O-propionylbaccatin III]	0.136 (≈ 0.15 nM)	1.03 (≈ 1.13 nM)	1.26 (≈ 1.39 nM)	–	–	–	–	–	–
CCOC(=O)O[C@@]12CO[C@@H]1C[C@H](O)[C@@]1(C)C(=O)C(CCN3CCOCC3)C3=C(C)[C@@H](OC(=O)[C@H](O)[C@@H](NC(=O)OC(C)(C)C)c4ccccc4)C[C@@](O)([C@@H](OC(=O)c4ccccc4)[C@H]21)C3(C)C (stereo partly drawn) [Example 35, 13-O-[(2R,3S)-3-(tert-Butoxycarbonylamino)-2-hydroxy-3-phenylpropionyl]-10-deacetoxy-4-deacetyl4-O-ethoxycarbonyl-10-(2-morpholinoethyl)baccatin III]	0.729 (≈ 0.78 nM)	1.83 (≈ 1.96 nM)	2.95 (≈ 3.15 nM)	–	–	–	–	–	–
CC1=C2C(CCN3CCOCC3)C(=O)[C@@]3(C)[C@H]([C@H](OC(=O)c4ccccc4)[C@](O)(C[C@@H]1OC(=O)[C@H](O)[C@@H](NC(=O)OC(C)(C)C)c1ccccc1)C2(C)C)[C@]1(OC(=O)C2CC2)CO[C@@H]1C[C@@H]3O (stereo partly drawn) [Example 36, 13-O-[(2R,3S)-3-(tert-butoxycarbonylamino)-2-hydroxy-3-phenylpropionyl]-4-O-cyclopropylcarbonyl-10-deacetoxy-10-(2-morpholinoethyl)baccatin III]	0.505 (≈ 0.542 nM)	1.64 (≈ 1.76 nM)	1.81 (≈ 1.94 nM)	–	–	–	–	–	–
CC(=O)O[C@H]1C(=O)[C@@]2(C)[C@H]([C@H](OC(=O)c3ccccc3)[C@]3(O)C[C@H](OC(=O)[C@H](O)[C@@H](NC(=O)c4ccccc4)c4ccccc4)C(C)=C1C3(C)C)[C@]1(OC(C)=O)CO[C@@H]1C[C@@H]2O [Taxol]	30.4 (≈ 35.6 nM)	3.51 (≈ 4.11 nM)	136 (≈ 159 nM)	–	–	–	inhibitory activity on the disassembly of microtubules in cytokinesis	weak	–
CC(=O)O[C@@]12CO[C@@H]1C[C@H](O)[C@@]1(C)C(=O)[C@H](O)C3=C(C)[C@@H](OC(=O)[C@H](O)[C@@H](NC(=O)OC(C)(C)C)c4ccccc4)C[C@@](O)([C@@H](OC(=O)c4ccccc4)[C@H]21)C3(C)C [Taxotel, reference compound]	–	–	–	5.3 (≈ 6.56 nM)	1.72 (≈ 2.13 nM)	49.7 (≈ 61.5 nM)	–	–	equal to or higher than that of taxol
